The source of these data is ChEMBL document CHEMBL1136325, “Synthesis and biological evaluation of GABA derivatives able to cross the blood-brain barrier in rats” (2003).

Active and inactive are the calls of the source. The rule behind the calls is not given here.

Test [1] has as its system Rattus norvegicus. Kind of test: In vivo pentobarbital (30 mg/kg ip)-induced hypnosis in rats; Moderate dyspnea. The class given is functional, organism-based.
Test [2] deals with GABA-B receptor (Homo sapiens) (UniProt Q9UBS5+O75899). As to the kind of experiment: Antagonistic potency against Gamma-aminobutyric acid type B receptor of guinea pig ileum. The class given is functional, tissue-based. The conditions noted are these: Cavia porcellus, target entry is the homologue from another species.
Test [3] concerns Rattus norvegicus. As to the kind of experiment: In vivo pentobarbital (30 mg/kg ip)-induced hypnosis in rats after iv administration at a dose of 23 umol. The class given is functional.
For test [4], the species on record is Cavia porcellus. As to the kind of experiment: Effect on ileal tone in guinea pig up to 100 uM; No effect. The class given is functional.
Test [5] relates to Rattus norvegicus. As to the kind of experiment: In vivo pentobarbital (30 mg/kg ip)-induced hypnosis in rats after iv administration at a dose of 46 umol. The class given is functional.
For test [6], the system named is Rattus norvegicus. Kind of test: In vivo pentobarbital (30 mg/kg ip)-induced hypnosis in rats after intracerebroventricular administration at a dose of 1.95uL. The class given is functional.
The test system of test [7] is Rattus norvegicus. As to the kind of experiment: In vivo pentobarbital (30 mg/kg ip)-induced hypnosis in rats after intracerebroventricular administration at a dose of 7.80 uL. The class given is functional.
In test [8] the test system is Rattus norvegicus. Kind of test: In vivo pentobarbital (30 mg/kg ip)-induced hypnosis in rats after iv administration at a dose of 184 umol. The class given is functional.
The subject of test [9] is Rattus norvegicus. As to the kind of experiment: In vivo pentobarbital (30 mg/kg ip)-induced hypnosis in rats after intracerebroventricular administration at a dose of 3.90 uL. The class given is functional.
The species named for test [10] is Cavia porcellus. Kind of test: Inhibitory activity against L-glutamate decarboxylase treated from 0.01 to 10 mM concentrations of the compound; Inactive.
The subject of test [11] is Rattus norvegicus. Kind of test: In vivo pentobarbital (30 mg/kg ip)-induced hypnosis in rats after iv administration at a dose of 92 umol. The class given is functional.
In test [12] the test system is Rattus norvegicus. Kind of test: In vivo pentobarbital (30 mg/kg ip)-induced hypnosis in rats after intracerebroventricular administration at a dose of 7.80 uL by pretreatment with atropine (1.0 mg/kg iv). The class given is functional.
Test [13] has as its system Rattus norvegicus. Kind of test: In vivo pentobarbital (30 mg/kg ip)-induced hypnosis in rats after intracerebroventricular administration at a dose of 15.6 uL by pretreatment with atropine (1.0 mg/kg iv). The class given is functional.
The test system of test [14] is Rattus norvegicus. As to the kind of experiment: In vivo pentobarbital (30 mg/kg ip)-induced hypnosis in rats after iv administration at a dose of 368 umol. The class given is functional.
The species named for test [15] is Cavia porcellus. As to the kind of experiment: Inhibitory activity against L-glutamic decarboxylase treated from 0.01 to 10 mM concentrations of the compound; Inactive.
In test [16] the test system is Rattus norvegicus. Kind of test: In vivo pentobarbital (30 mg/kg ip)-induced hypnosis in rats after intracerebroventricular administration at a dose of 15.6 uL. The class given is functional.

On to `CN1C=CC(CC2C=CN(C)C=C2C(=O)NCCCC(=O)OCc2ccccc2)C(C(=O)NCCCC(=O)OCc2ccccc2)=C1` (centres undefined), for which, in the test on Rattus norvegicus [1], the Adverse effect entry was “Moderate dyspnea”. In test [2], this compound yielded a pD2 of 5.59. The Hypnosis duration with Rattus norvegicus [3] turned out to be 206 min; with Rattus norvegicus [5], 257 min. Further, the Effect result in the test filed under Cavia porcellus [4] was “inactive”.
Turning to `CN1C=CC(CC2C=CN(C)C=C2C(=O)NCCCC(=O)[O-])C(C(=O)NCCCC(=O)[O-])=C1.[Na+].[Na+]` (centres undefined), the Hypnosis duration in the test on Rattus norvegicus [6] was found to be 147 min; in the test on Rattus norvegicus [7], 60 min; in the test on Rattus norvegicus [8] it was 80 min; with Rattus norvegicus [9], 142 min; with Rattus norvegicus [11], 149 min; with Rattus norvegicus [12] it was 184 min. Further, the result in the test filed under Cavia porcellus [10] was inactive. Moreover, the Ileal activity result in the test filed under Cavia porcellus [4] is “inactive”.
On to `C[n+]1cccc(C(=O)NCCCC(=O)OCc2ccccc2)c1.[I-]`, for which the Hypnosis duration entry is “Moderate dyspnea” in the test with Rattus norvegicus [1], 156 min in the test on Rattus norvegicus [3], 207 min with Rattus norvegicus [5] and 194 min in the test with Rattus norvegicus [11].
With `COS(=O)(=O)[O-].C[n+]1cccc(C(=O)NCCCC(=O)O)c1`, the Hypnosis duration in the test on Rattus norvegicus [13] came to 158 min; in the test with Rattus norvegicus [14] it was 153 min; in the test on Rattus norvegicus [16], 100 min. The outcome in the test listed under Cavia porcellus [15] was inactive. Also, the Ileal activity result in the test listed under Cavia porcellus [4] was “inactive”.
As to `NCCCC(=O)O` [GAMMA-AMINOBUTYRIC ACID], the values for the Hypnosis duration in the test with Rattus norvegicus [8] and with Rattus norvegicus [9] were 128 min and 188 min, respectively.
